According to patent publication US20030022864A1, “9-[(5-dihydroxyboryl)-pentyl] purines, useful as an inhibitor of inflammatory cytokines” (priority 2001, published 2003):
Blank lines part the entries; values can stand above or below the compound they belong to.

Experiments:
[1] = tested on: TNF-α production by human monocytes; experiment: Assay for inhibition of TNF-α production by human monocytes; type: cell-based; conditions: 100 ng/ml LPS, 16 hours, ELISA, read-out: IC50 Against TNF-α
Description: Assay for inhibition of TNF-α production by human monocytes
Monocytes were prepared by centrifugal counterflow elutriation from PBMC obtained from leukophoresis of normal volunteers (leukopaks) at the Phoresis laboratory located at Duke University Hospital, Durham, N.C., United States of America. PBMC from leukopaks were diluted in sterile isotonic saline/10 mM HEPES (N-[2-Hydroxyethyl]piperazine-N′-[2-ethanesulfonic acid]), the name of a buffer used in biological and protein chemistry) and placed into 50 ml conical polypropylene tubes in 30 ml aliquots. Each aliquot of diluted PBMC is underlaid with 20-25 ml of sterile lymphocyte separation medium (LSM; Organon-Technika, Durham, N.C., United States of America). The tubes were centrifuged at 400× gravity for 40 minutes at room temperature. The mononuclear cells at the interface were resuspended in phosphate buffered saline (PBS) and then separated, using a Beckman elutriator, into lymphocytes and monocytes. Yields of 10^9 monocytes with greater than 90% purity were routinely obtained.
Purified monocytes prepared as described above were suspended at 4×10^6 cells/ml in complete medium. Complete medium is defined as follows: RPMI-1640 supplemented with 100 U/ml penicillin; 100 μg/ml streptomycin; 2 mM L-glutamine; 1 mM Na pyruvate; 1% MEM non-essential amino acids; 25 mM HEPES (all from GIBCO, Gaithersburg, Md., United States of America); and 5% pooled, heat-inactivated (56° C., 30 minutes) human serum from type AB blood (Pel-Freez, Brown Deer, Wis., United States of America). To each well of a 48-well flat bottomed tissue culture plate was added 0.125 ml of cell suspension. Test materials (diluted in complete medium at 2× the desired final concentration) were added in […] to each well. Control wells received 250 μl of complete medium. All samples were tested at a minimum of 4 concentrations in the presence or absence of 100 ng/ml LPS (S. typhosa; Sigma, St. Louis, Mo., United States of America; 125 μl of 4× desired final concentration added) and incubated at 37° C. in humidified 5% CO2 for 16 hours. At this time, culture supernatants were aspirated off and the unattached cells and cell debris removed by a 2 minute spin in a microcentrifuge at 10,000× gravity. The release of TNF-α was determined in the cell-free supernatants using an ELISA capture assay.

[2] = 400 mg 3 times daily, 6 months; placebo 26.8%, p=0.04; cited from earlier work
[3] = molecular target: T1, biologically-active TNF-α (Homo sapiens, UniProt P01375); conditions: heart failure patients; cited from earlier work
T1 construct: host or cells: serum of heart-failure patients
T1 sequence (P01375 77-233 limits assumed): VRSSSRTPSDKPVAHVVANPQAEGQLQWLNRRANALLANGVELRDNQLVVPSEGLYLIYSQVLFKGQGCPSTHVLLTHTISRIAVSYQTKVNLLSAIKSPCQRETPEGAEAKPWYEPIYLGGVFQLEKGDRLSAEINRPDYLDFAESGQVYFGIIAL

[4] = cited from earlier work
[5] = two weeks after a single infusion; cited from earlier work
[6] = tested on: rats with permanent occlusion of the middle cerebral artery; conditions: systemic administration, 10 mg/kg 1 hour post ischemia; compared with vehicle controls; cited from earlier work
[7] = tested on: CCR4 mRNA; experiment: Expression of C-C chemokine receptor mRNA in normal human PBMC by RT-PCR: CCR4; type: cell-based; conditions: unstimulated human PBMC, FIG. 6
Description: (§1) The ability of LMP-420 to affect the expression of C-C chemokine receptors on normal human PBMC was tested as illustrated in FIG. 6. […] There was no effect on CCR4, the only other C-C chemokine receptor whose mRNA could be detected in these unstimulated human PBMC. Also, there was no effect on the mRNA for GAPDH which is used as a “housekeeping gene” to verify that equal amounts of mRNA are being reversed transcribed for the analysis. Thus, the ability of LMP-420 to inhibit the expression of CCR1 might contribute to antiinflammatory properties of LMP-420, as well as its ability to inhibit HIV-1 replication.

[8] = tested on: mRNA for GAPDH; experiment: Housekeeping gene mRNA in normal human PBMC by RT-PCR: GAPDH; type: cell-based; conditions: FIG. 6
Description: as §1

[9] = tested on: nitric oxide production by murine macrophage cell line J774.1; experiment: Nitric oxide production by a murine macrophage cell line (J774.1), nitrate/nitrite by Griess reagent; type: cell-based; conditions: FIG. 2
Description: (§2) Assay for inhibition of TNF-α or nitric oxide (NO) by a murine macrophage cell line
(§3) Murine macrophage cell line J774.1 cells were maintained by culture at 37° C. in 5% humidified CO2 in media that was […] (DMEM) supplemented with 100 U/ml penicillin; 100 μg/ml streptomycin; 2 mM L-glutamine; 1 mM Na pyruvate; 1% MEM non-essential amino acids; 25 mM HEPES (all from GIBCO, Gaithersburg, Md., United States of America); and 10% pooled, heat-inactivated (56° C., 30 minutes) fetal bovine serum (FBS; GIBCO). For assays of TNF-α and nitric oxide production, cells were cultured at 1×10^5 cells/well in 96-well tissue culture plates. Test compound was prepared as a stock solution in DMSO and added to each well to give the desired final concentration. DMSO was added to control wells to serve as a vehicle control. Each concentration of test material or vehicle control was tested in replicates of 4 wells. After a 1 hour exposure to test material, a stimulus (either SAK2 stimulatory oligonucleotide [10 μg] or LPS [10 ng/ml]+IFNγ[100 u/ml]) was added to each well, and the plates incubated for 48 hours at 37° C. in 5% humidified CO2. […] Content of nitrite/nitrate in J774.1 cell culture supernatants was expressed as μM.

[10] = tested on: TNF-α production by murine macrophage cell line J774.1; experiment: Inhibition of TNF-α production by a murine macrophage cell line (J774.1); type: cell-based; conditions: FIG. 1; read-out: IC50, production of TNF-α by cultured murine macrophage cell line
Description: as §2, §3

[11] = tested on: mRNA encoding for CCR1; experiment: Expression of C-C chemokine receptor mRNA in normal human PBMC by RT-PCR: CCR1; type: cell-based; conditions: FIG. 6
Description: as §1

IC50 [1]: > 20000 nM
Compound: CCOC(=O)CCCn1cnc2c(Cl)nc(N)nc21 [Comparison Compound 14]

IC50 [1]: > 50000 nM
Compound: Nc1nc(Cl)c2ncn(CCCCO)c2n1 [Comparison Compound 6]

Compound: CC(=O)CCCCn1c(=O)c2c(ncn2C)n(C)c1=O [Pentoxifylline]
left ventricular ejection fraction (LVEF) [2]: 38.7%

Compound: ENBREL
decrease in serum levels of biologically-active TNF-α [3]: 85%
patients who achieved the ARC20 ([4]; 12 weeks, placebo 13%): 73%
patients who met the PsARC ([4]; 12 weeks, placebo 23%): 87%
patients who achieved a 75% improvement in the PASI ([4]; 19 assessable patients per group, placebo 0, p=0.015): 26%
median target lesions (improvement) ([4]; placebo 0%): 50%
median PASI improvement ([4]; placebo 9%): 46%

Compound: REMICADE: humanized murine monoclonal antibody to TNF-α
patient's psoriasis [5]: dramatically cleared up

IC50 [1]: > 20000 nM
Compound: Nc1nc(Cl)c2ncn(CCCC(=O)O)c2n1 [Comparison Compound 13]

Compound: C/C(=N\N=C(N)N)c1cc(NC(=O)CCCCCCCCC(=O)Nc2cc(/C(C)=N/N=C(N)N)cc(/C(C)=N/N=C(N)N)c2)cc(/C(C)=N/N=C(N)N)c1.Cl.Cl.Cl.Cl [CNI-1493]
reduced infarct volume [6]: 80%

IC50 [1]: 80 nM
Compound: Nc1nc(Cl)c2ncn(CCCCCB(O)O)c2n1 [LMP-420, 2-amino-6-chloro-9-[(5-dihydroxyboryl)-pentyl] purine]
effect on CCR4 mRNA [7]: no effect
effect on the mRNA for GAPDH [8]: no effect
effect on the production of nitric oxide as measured by the release of nitrate or nitrite [9]: no effect
IC50 [10]: ~1000 nM
expression of mRNA encoding for CCR1 [11]: dose-dependent inhibition
